Consider 8 compounds from patent US20240124417A1, “COMPOUNDS USEFUL AS IMMUNOMODULATORS” (Bristol-Myers Squibb Company, priority 2019, published 2024).

What is called IC50 is the concentration at which inhibition is half-maximal. A high value points to a need for much substance.

The target in the assay is T1, PD-1/PD-L1 (Homo sapiens, UniProt Q9NZQ7).
T1 construct: TVMV protease site linker (C); made in house; host or cells: HEK293T cells
T1 sequence (Q9NZQ7 18-239): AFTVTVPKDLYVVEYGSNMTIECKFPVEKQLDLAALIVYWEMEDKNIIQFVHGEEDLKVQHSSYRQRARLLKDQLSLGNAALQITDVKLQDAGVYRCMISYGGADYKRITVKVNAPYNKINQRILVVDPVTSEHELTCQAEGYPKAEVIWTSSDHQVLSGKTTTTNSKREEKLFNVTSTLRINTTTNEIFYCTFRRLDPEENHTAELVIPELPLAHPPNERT
As to the kind of experiment: PD-1/PD-L1 Homogenous Time-Resolved Fluorescence (HTRF) binding assay. As to conditions: PD-L1-His 10 nM, PD-1-Ig 20 nM. In a few lines:
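Inhibitors pre-incubated 15 min with PD-L1-His extracellular domain (10 nM final) in dPBS with 0.1% BSA and 0.05% Tween-20, then PD-1-Ig (20 nM final) added for a further 15 min. Read-out by HTRF with europium cryptate anti-Ig (1 nM) and APC anti-His (20 nM). Related pairs: PD-1-Ig/PD-L2-His (20/5 nM), CD80-His/PD-L1-Ig (100/10 nM).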
(Time-resolved FRET reads energy transfer from a long-lived donor to a nearby acceptor.)
In turn, `COCc1noc(CNCc2cc(Cl)c(OCc3cccc(-c4cccc(OCCCN5CC[C@@H](O)C5)c4C)c3C)cc2OCc2cncc(C#N)c2)n1` [Example 2558, (R)-5-((4-chloro-5-((3′-(3-(3-hydroxypyrrolidin-1-yl)propoxy)-2,2′-dimethyl-[1,1′-biphenyl]-3-yl)methoxy)-2-((((3-(methoxymethyl)-1,2,4-oxadiazol-5-yl)methyl)amino)methyl)phenoxy)methyl)nicotinonitrile] had an IC50 of 6.4 nM.

`Cc1c(COc2cc(OCc3cncc(C#N)c3)c(CN(C)Cc3ccnn3C)cc2Cl)cccc1-c1cccc(OCCCN2CC[C@@H](O)C2)c1C` [Example 2559, (R)-5-((4-chloro-5-((3′-(3-(3-hydroxypyrrolidin-1-yl)propoxy)-2,2′-dimethyl-[1,1′-biphenyl]-3-yl)methoxy)-2-((methyl((1-methyl-1H-pyrazol-5-yl)methyl)amino)methyl)phenoxy)methyl)nicotinonitrile] gave an IC50 of 4.1 nM. In the case of `COCc1noc(CN(C)Cc2cc(Cl)c(OCc3cccc(-c4cccc(OCCCN5CC[C@@H](O)C5)c4C)c3C)cc2OCc2cncc(C#N)c2)n1` [Example 2560, (R)-5-((4-chloro-5-((3′-(3-(3-hydroxypyrrolidin-1-yl)propoxy)-2,2′-dimethyl-[1,1′-biphenyl]-3-yl)methoxy)-2-((((3-(methoxymethyl)-1,2,4-oxadiazol-5-yl)methyl)(methyl)amino)methyl)phenoxy)methyl)nicotinonitrile], the IC50 was determined as 4.5 nM. Compound `Cc1c(COc2cc(OCc3cncc(C#N)c3)c(CN(C)Cc3nc4ccccc4n3Cc3ccccc3)cc2Cl)cccc1-c1cccc(OCCCN2CC[C@@H](O)C2)c1C` [Example 2561, (R)-5-((2-((((1-benzyl-1H-benzo[d]imidazol-2-yl)methyl)(methyl)amino)methyl)-4-chloro-5-((3′-(3-(3-hydroxypyrrolidin-1-yl)propoxy)-2,2′-dimethyl-[1,1′-biphenyl]-3-yl)methoxy)phenoxy)methyl)nicotinonitrile] displayed an IC50 of 746 nM. As for `Cc1c(COc2cc(OCc3cncc(C#N)c3)c(CN(C)Cc3nn(C)c4ccccc34)cc2Cl)cccc1-c1cccc(OCCCN2CC[C@@H](O)C2)c1C` [Example 2562, (R)-5-((4-chloro-5-((3′-(3-(3-hydroxypyrrolidin-1-yl)propoxy)-2,2′-dimethyl-[1,1′-biphenyl]-3-yl)methoxy)-2-((methyl((1-methyl-1H-indazol-3-yl)methyl)amino)methyl)phenoxy)methyl)nicotinonitrile], the IC50 is 9.5 nM.

Compound `Cc1c(COc2cc(OCc3cncc(C#N)c3)c(CNC3CCc4[nH]ncc4C3)cc2Cl)cccc1-c1cccc(OCCCN2CC[C@@H](O)C2)c1C` (stereo partly drawn) [Example 2563, 5-((4-chloro-5-((3′-(3-((R)-3-hydroxypyrrolidin-1-yl)propoxy)-2,2′-dimethyl-[1,1′-biphenyl]-3-yl)methoxy)-2-(((4,5,6,7-tetrahydro-1H-indazol-5-yl)amino)methyl)phenoxy)methyl)nicotinonitrile] displayed an IC50 of 0.5 nM. Take `Cc1c(COc2cc(OCc3cncc(C#N)c3)c(CN(C)C3CCc4[nH]ncc4C3)cc2Cl)cccc1-c1cccc(OCCCN2CC[C@@H](O)C2)c1C` (stereo partly drawn) [Example 2564, 5-((4-chloro-5-((3′-(3-((R)-3-hydroxypyrrolidin-1-yl)propoxy)-2,2′-dimethyl-[1,1′-biphenyl]-3-yl)methoxy)-2-((methyl(4,5,6,7-tetrahydro-1H-indazol-5-yl)amino)methyl)phenoxy)methyl)nicotinonitrile]: the IC50 is 2.7 nM.

On to `Cc1c(COc2cc(OCc3cncc(C#N)c3)c(CNCc3ncc4ccccn34)cc2Cl)cccc1-c1cccc(OCCCN2CC[C@@H](O)C2)c1C` [Example 2565, (R)-5-((4-chloro-5-((3′-(3-(3-hydroxypyrrolidin-1-yl)propoxy)-2,2′-dimethyl-[1,1′-biphenyl]-3-yl)methoxy)-2-(((imidazo[1,5-a]pyridin-3-ylmethyl)amino)methyl)phenoxy)methyl)nicotinonitrile], for which the IC50 came to 4.7 nM.
